Where no end group is shown, it is not given here.
How the values were obtained:
human neprilysin (NEP) = assay: Cleavage by NEP; type: in vitro ADME; settings: isolated human neprilysin (NEP)
From the text: Table 8 Hydrolyses of α-scoliidine and β-scoliidine by human neprilysin (NEP) and angiotensin-converting enzyme (ACE). | column: Cleavage (%)

PC12 cells [1] = system: PC12 cells
Description: (§1) Neuronal cell line (PC12) was used to evaluate the neuroprotective effects of α-scoliidine and β-scoliidine against oxidative stress in vitro. PC12 cell is derived from a transplantable rat pheochromocytoma and was purchased from American Type Culture Collection (USA) (ATCC® CRL-1721™). Cells were routinely cultured in DMEM medium (Sigma-Aldrich) supplemented with 10% fetal bovine serum (Gibco, Waltham, USA), 1% (v/v) of 10000 U/mL penicillin, 10 mg/mL streptomycin and 25 μg/mL amphotericin B solution (Sigma-Aldrich) at 37 °C in an atmosphere of 5% CO2 and 95% air (Water Jacketed CO2 Incubator, Thermo Scientific). At 80% confluence, cells were passaged using trypsin-EDTA solution [0.05% (m/v) trypsin and 0.02% (m/v) EDTA]. Culture medium was replaced every 2-3 days.
PC12 cells were seeded into 96-well plates (Nest Biotechnology, Rahway, USA), at 2.0 × 10^4 cells per well, and were treated with different concentrations (0.1 to 10 µM) of α-scoliidine and β-scoliidine in a final volume of 0.15 mL. The plate was incubated at 37°C for 3, 6, 12, 24, and 48 h. For each concentration and time course studied, there were control and DMSO groups, which represent untreated cells (only one equal volumes of the culture medium) and treated with DMSO 2.5% (v/v) diluted in the medium culture, respectively. The cytotoxic effects of both compounds were determined using crystal violet assay, according to Feoktistova et al.. Briefly, the medium was aspirated, and the cells were washed twice in a gentle stream of tap water. Then, 50 μL of a 0.5 % (v/v) crystal violet staining solution was added to each well, and incubated for 20 min at room temperature on a bench rocker with a frequency of 20 oscillations per min. The plate was washed four times and air-dried for at least 2 h at room temperature. Subsequently, methanol (200 μL) was added to each well, and the plate was incubated with its lid on for 20 min at room temperature on a bench rocker with a frequency of 20 oscillations per min. After, the absorbance of the sample was measured at 570 nm using a SpectraMax reader (Molecular Devices, CA, USA). The cytotoxicity was expressed as percentage (%) of cell integrity relative to control cells (100%).
(§2) All data are presented as mean ± SD of three independent experiments (n = 3) in triplicate. Data were analyzed using one-way analysis of variance (ANOVA) for between-groups comparisons followed by a Tukey’s post-hoc test for multiple comparisons. Values of p < 0.05 were considered to be statistically significant. The analyses were performed using GraphPad Prism 6.0 software (GraphPad Software, Inc., La Jolla, CA).

ACE = assay: Cleavage by ACE (stability test, HPLC); type: in vitro ADME, rabbit; settings: peptide 30 µM, 37°C, four hours, RP-HPLC, UV 214 nm; for metabolised at 4 h, 30 µM: rabbit, ACE
From the text: All chemicals used in the present study were of analytical reagent grade (purity higher than 95%) and purchased from Calbiochem-Novabiochem Corporation (USA), Gibco BRL (New York, USA), Fluka Chemical Corp. (Buchs, Switzerland) or Sigma-Aldrich Corporation (MO, USA). The ACE I from rabbit lung (EC 3.4.15.1) from Sigma-Aldrich. For the reverse phase chromatography, acetonitrile and TFA were acquired from J.T. Baker. The FRET substrate Abz-FRK(Dnp)P-OH (used by ACE-I assays) were provided by Prof. Adriana Carmona, from the Department of Biophysics of UNIFESP-EPM, São Paulo, Brazil.
Both peptides (30 µM) were incubated separately with ACE ([…]) at 37°C for four hours. Samples containing only the synthetic peptides were used as negative control. After incubation, samples were analyzed by reverse phase chromatography on HPLC (Prominence, Shimadzu), using a Shim-pack VP-ODS C-18 column (4.6× 150 mm). Solvents used were 0.1% (v/v) TFA in water (solvent A), and acetonitrile plus solvent A (9:1) as solvent B. Separations were performed at a flow rate of 1 mL/min and a 10-60% gradient of solvent B over 20 min. In all cases, elution was followed by the measurement of ultraviolet absorption (214 nm).

cells = settings: cited from earlier work
From the text: The phenomenon of synergistic toxicity of H2O2 effects when two agents are used together, and efficiently potentiate cell damage, has been reported in the literature. Of the several examples of H2O2 toxicity potentiation by oth ...

[2] = system: nicotinic acetylcholine receptor (nAChR); settings: prey central nervous system; cited from earlier work
From the text: The first study of solitary wasp venoms was reported in 1987. Two kinins, threonine^6-bradykinin (Thr^6-BK) and megascoliakinin, were isolated and characterized from the venoms of the European scoliid wasps Colpa interrupta and Megascolia flavifrons, respectively. […] Thr^6-BK may be a common component of solitary scoliid wasp venoms, since we identified this peptide as a major component in three scoliid wasp venoms found in Japan [[1 ...

human neural stem cells = settings: cited from earlier work
From the text: (§3) BPP-11e (<[…]) and BPP-AP (<[…]), for example, ...

PC12 cells [3] = type: cell-based, rat
Description: Culture medium was replaced every 2-3 days.
The effects of α-scoliidine or β-scoliidine on the mitochondrial metabolism of PC12 cells were estimated using 3-(4,5-dimethylthiazol-2-yl)-2,5-diphenyltetrazolium bromide (MTT) reduction assay, as previously described. […] In addition, to the experimental groups mentioned above, two more groups were included in which cells were treated with L-N^Ω-Nitroarginine methyl ester (L-Name; 1 mM) and Bradykinin (Bk; 0.3 µM) in the presence or absence of H2O2. After treatments, cells were treated with 0.5 mg/mL MTT in the same medium culture for 3 h at 37°C. The resulting formazan produced by both cell treatments were dissolved by addition of DMSO. The amount of MTT formazan dissolved in DMSO was determined by measuring absorbance with a microplate reader (Spectramax M3 multi-mode, Molecular Devices, CA, EUA) at 540 nm. Data were expressed as the mean ± SD of mitochondrial metabolism percentage in relation to the control.

[4] = system: human neuroblast-like cell line SH-SY5Y; settings: cited from earlier work
From the text: as §3

PC12 cells [5] = settings: cited from earlier work
PC12 cells [6] = system: PC12 cells; remark: listed apart in the source
Description: as §1
PC12 cells were seeded at 2 x 10^4 cells/well in a 96-well plate (Nest Biotechnology, Rahway, USA) for 24 h, and then two neuroprotective assays were evaluated: 1) Cells were pre-treated with α-scoliidine or β-scoliidine (1 µM) at 37°C for 22 h and, after the mediums were replaced containing the peptide and H2O2 (0.6 mM) and incubated for 2 h more; 2) Cells were pre-treated with α-scoliidine or β-scoliidine (1 µM) for 4 h at 37°C and, after the mediums were replaced containing peptide and H2O2 (0.6 mM) and incubated for 20 h more. The control, α-scoliidine and β-scoliidine groups (without H2O2) were incubated under the same conditions. Next, all experimental groups were analyzed by the crystal violet assay.
as §2

[7] = 0.1 to 10 µM, n = 3 in triplicate

## DYVTVKGFSPLR [α-scoliidine]
Human neprilysin (NEP)
  metabolised: < 0.01%
PC12 cells [1]; 0.1 to 10 µM, 3, 6, 12, 24, and 48 h, mean ± SD of three independent experiments in triplicate
  Cytotoxicity, cell integrity vs control or DMSO: did not show any significant cytotoxicity (p > 0.05) in all dose concentrations, and at the times tested
PC12 cells [1]; [7]
  Cell integrity / neurotoxicity at 6 h: showed a tendency for neurotoxicity at 6 h of treatment
ACE
  Cleavage by ACE: not cleaved by the metallopeptidase
  metabolised at 4 h, 30 µM: < 0.01%

## O=C1O[C@H]([C@@H](O)CO)C(O)=C1O [ascorbic acid]
cells
  Effect on intracellular oxidative potential of H2O2: enhancement of the intracellular oxidative potential of H2O2

## RPPGFTPFR [Thr^6-BK, threonine^6-bradykinin]
[2]
  Block of nAChR synaptic transmission: irreversibly block the synaptic transmission of the nicotinic acetylcholine receptor (nAChR) in the prey central nervous system

## Aβ 42: amyloid-β peptide (Aβ) isoform, Aβ 42
Human neural stem cells
  Effect on cell proliferation: promotes cell proliferation of human neural stem cells in a concentration-dependent manner

## DYVTVKGFSPLRKA [β-scoliidine]
Human neprilysin (NEP)
  metabolised: < 0.01%
PC12 cells [1]; [7]
  Cell integrity / neurotoxicity at 6 h: decreased cell integrity after 6 h of treatment in all concentration tested
ACE
  Cleavage by ACE: not cleaved by the metallopeptidase
  metabolised at 4 h, 30 µM: < 0.01%

## COC(=O)[C@@H](N)CCCNC(N)=N[N+](=O)[O-] [L-Name, L-N^Ω-Nitroarginine methyl ester]
PC12 cells [3]; pre-treatment 4 h, then + H2O2 0.6 mM 20 h, peptides 1 µM, L-Name 1 mM, Bk 0.30 μM, MTT
  Metabolic viability under H2O2: prevented the reduction of metabolic viability

## RPPGFTPFRKA [megascoliakinin]
[2]
  Block of nAChR synaptic transmission: irreversibly block the synaptic transmission of the nicotinic acetylcholine receptor (nAChR) in the prey central nervous system

## <EARPPHPPIPP [BPP-11e]
[4]
  Neuroprotection against H2O2-induced oxidative stress: not good neuroprotective peptides against the H2O2-induced oxidative stress

## Cc1cccc([C@H](C)c2cnc[nH]2)c1C [Dexmedetomidine]
PC12 cells [5]
  Proliferation in a stress condition: dose-dependent restored impaired proliferation of PC12 cells in a stress condition
  Protection from ROS-induced cytotoxicity: protected PC12 cells from ROS-induced cytotoxicity
  p21 and cyclin D1 expression: decreased expression of tumor suppressor protein p21 and increased expression of cell cycle-related cyclin D1

## C[S+](C)[O-] [DMSO, dimethyl sulfoxide]
PC12 cells [1]; 24 and 48 h, compared to the control group, peptides 0.1 to 10 µM, DMSO 2.5% (v/v), n = 3 in triplicate
  Cell integrity after 24 and 48 h: decreased the cell integrity after 24 and 48 h compared to the control group

## OO [H2O2, hydrogen peroxide]
PC12 cells [6]
  H2O2 concentration above which cytotoxic: greater than 0.5 mM
  H2O2 cytotoxicity dose response, chronic: also showed a dose-response effect
  Reduction of cell viability by H2O2: ~ 60%
PC12 cells [3]
  Metabolic viability: 32.23 ± 0.96%

## <EARPPHPPIPPAP [BPP-AP]
[4]
  Neuroprotection against H2O2-induced oxidative stress: not good neuroprotective peptides against the H2O2-induced oxidative stress

Source: paper PMC8215932, “Novel neuroprotective peptides in the venom of the solitary scoliid wasp Scolia decorata ventralis” (The Journal of Venomous Animals and Toxins Including …, 2021)
